The numbers were not newly measured in patent publication US20060222709A1 (AGI Therapeutics Research Ltd., priority 2005, published 2006), which cites them from elsewhere.

Series [1] deals with patients with chronic constipation. To be noted: two trials.
In series [2] the test system is women patients with IBS-C. The settings on record: 6 mg twice daily.

As for `OC[C@H]1O[C@@H](O[C@@H]2[C@@H](CO)OC(O)(CO)[C@H]2O)[C@H](O)[C@@H](O)[C@H]1O` (mixture of isomers) [lactulose], in series [1], the “stool frequency and consistency versus placebo” value is recorded as “more effective than placebo”.

For `CN(C)C(=N)N=C(N)N` [metformin, dimethylbiguanide], under “human, in vivo”, the “acute, reversible adverse effects, mainly of gastrointestinal tract origin, patients affected” value was “up to 20%”. In addition, the prevalence of diarrhea (treated diabetes patients (Bytzer 2001)) is 20%.

With `CCCCCNC(=N)N/N=C/c1c[nH]c2ccc(OC)cc12.O=C(O)/C=C\C(=O)O` [tegaserod, 3-(5-methoxy-1H-indol-3-ylmethylene)-N-pentylcarbazimidamide hydrogen maleate], in series [2], the “global and individual symptoms” value is “effectively improves global and individual symptoms”.
